# Measurements as given in US12383512B2, “Cannabidiol-type cannabinoid compound” (Jazz Pharmaceuticals Research UK LImited, priority 2019, dated 2025).
# Where two headings read alike, the source gives them in different places.
# What was measured:
# [1] = test system: seizure threshold current for tonic hind limb extensor convulsions in mice; experiment: Maximal electroshock seizure threshold (MEST) test in the mouse; settings: for % change from vehicle (CC50) / CC50 ± SEM: MEST test
# Procedure: The efficacy of 6-OH CBD was tested in a mouse model of generalised seizure, the maximal electroshock seizure threshold (MEST) test.
# In the MEST test the ability of a drug to alter the seizure threshold current required to induce hind limb tonic extensor convulsions is measured according to an “up and down” method of shock titration (Kimball et al., 1957). An increase in seizure threshold is indicative of anti-convulsant effect.
# The ability of a test compound to alter the stimulus intensity, expressed as current (mA), required to induce the presence of tonic hind limb extensor convulsions, is assessed in the MEST.
# Naïve mice were acclimatised to the procedure room in their home cages for up to 7 days, with food and water available ad libitum.
# All animals were weighed at the beginning of the study and randomly assigned to treatment groups based on a mean distribution of body weight across groups.
# The first animal within a treatment group was given a shock at the expected or estimated CC50 current. For subsequent animals, the current was lowered or raised depending on the convulsions outcome from the preceding animal.
# Data generated from each treatment group were used to calculate the CC50±SEM values for the treatment group.
# Vehicle: (5% ethanol, 5% solutol, 90% Saline) was prepared as follows: 2 mL of ethanol, 2 mL of solutol were warmed to 60° C., in 36 mL of saline (1:1:18).
# The test compound, alpha 6-OH CBD was prepared according to the method described in Example 1. 6-OH CBD was administered at 3, 10 and 30 mg/kg (i.p.) in a 1:1:18 ethanol:solutol:0.9% saline formulation.
# 6-OH CBD effects were also calculated as percentage change in CC50 from the vehicle control group.
# Significant difference between drug-treated animals and controls were assessed according to Litchfield and Wilcoxon (1949).
# [2] = Plasma and brain pharmacokinetics after single intravenous or intraperitoneal administration to the mouse; type: in vivo; settings: for Kp: brain/plasma, other: intravenous and intraperitoneal, all IV and IP dose groups
# Description: The objective of this study was to determine brain and plasma pharmacokinetic parameters of 6-OH CBD following a single intravenous or intraperitoneal administration of 6-OH CBD to the mouse; and to determine brain: plasma concentration ratios for 6-OH CBD.
# Ninety-nine male mice each received a single intravenous or intraperitoneal dose of 6-OH CBD, as detailed below in Table 3.
# For each formulation, 6-OH CBD was formulated at the required concentration in ethanol: Kolliphor EL (Cremophor EL): 0.9% (w/v) Saline (1:1:18, v/v/v).
# Each animal received a single intravenous administration, via a tail vein, at a nominal dose volume of 2 mL/kg or a single intraperitoneal administration at a nominal dose volume of 5 mL/kg.
# Following dosing, terminal blood samples were collected from each animal via cardiac puncture, and brains were excised, at each of the following time points: • Intravenous groups: 7, 15 and 30 minutes, 1, 2, 4, 8, 12 and 24 hours; • Intraperitoneal groups: 15 and 30 minutes, 1, 2, 4, 8, 12 and 24 hours.
# Blood was collected into tubes containing lithium heparin anticoagulant and centrifuged to prepare plasma. Brain samples were frozen on dry ice, then weighed and stored deep frozen prior to bioanalysis. The remaining carcasses were discarded. Plasma was stabilised with an equal volume of ascorbic acid solution, then stored deep frozen prior to bioanalysis.
# Stabilised plasma samples were analysed to determine the concentrations of 6-OH CBD, using qualified LC-MS/MS methods. The results of these analyses were evaluated to determine non-compartmental pharmacokinetic parameters.
# The following parameters were determined: • Cmax Maximum concentration observed. • Tmax Time of maximum observed concentration. • AUC0-t Area under the concentration-time curve from hour 0 to the last quantifiable concentration, estimated by the linear trapezoidal rule. • AUC0-24 Area under the concentration-time curve from hour 0 to hour 24, estimated using the linear trapezoidal rule. • t1/2 Elimination half-life, determined as In(2)/λz. • Cl Clearance, calculated (for intravenous doses only) as Dose/AUC0-inf. • Vss Volume of distribution, based on the terminal elimination phase, calculated (for intravenous doses only) as Cl/λz. • Fabs Absolute bioavailability of the intraperitoneal dose.
# [3] = 3 mg/kg i.p., pre-treatment time 30 min
# [4] = 10 mg/kg i.p., pre-treatment time 15 min
# [5] = 30 mg/kg i.p., pre-treatment time 60 min
smiles,measurement,setting,value
"C=C(C)[C@@H]1CC(O)C(C)=C[C@H]1c1c(O)cc(CCCCC)cc1O (stereo partly drawn) [6-OH CBD, Alpha 6-hydroxy cannabidiol]",effect on MEST in words,"[1]; 3, 10 and 30 mg/kg i.p.",dose-related increase in MEST
same,% change from vehicle (CC50),[1]; [3],25%
same,CC50 ± SEM,[1]; [3],30.0 ± 1.1 mA
same,% change from vehicle (CC50),[1]; [4],135%
same,CC50 ± SEM,[1]; [4],56.5 ± 2.1 mA
same,% change from vehicle (CC50),[1]; [5],327%
same,CC50 ± SEM,[1]; [5],102.5 ± 2.2 mA
same,increase in brain AUC0-24 for a 10-fold increase in dose level,"[2]; brain, IP 3 to 30 mg/kg",32.6 fold
same,increase in brain Cmax for a 10-fold increase in dose level,"[2]; brain, IP 3 to 30 mg/kg",15.8 fold
same,Cmax,"[2]; male, brain, IP 3 mg/kg",851 ng/mL
same,Cmax,"[2]; male, brain, IP 10 mg/kg",3680 ng/mL
same,Cmax,"[2]; male, brain, IP 30 mg/kg",13500 ng/mL
same,Cmax,"[2]; male, brain, IV 1 mg/kg",1580 ng/mL
same,AUC(0-t),"[2]; male, brain, ip, 3 mg/kg, brain, IP 3 mg/kg, read-out: AUC0-24",768 ng·h/mL
same,AUC(0-t),"[2]; male, brain, ip, 3 mg/kg, brain, IP 3 mg/kg, read-out: AUC0-t",756 ng·h/mL
same,Tmax,"[2]; male, brain, ip, 3 mg/kg, brain, IP 3 mg/kg, read-out: Tmax (converted)",30 min
same,half-life,"[2]; male, brain, ip, 3 mg/kg, brain, IP 3 mg/kg, read-out: t1/2 (converted)",34.1 min
same,AUC(0-t),"[2]; male, brain, ip, 10 mg/kg, brain, IP 10 mg/kg, read-out: AUC0-24",3940 ng·h/mL
same,AUC(0-t),"[2]; male, brain, ip, 10 mg/kg, brain, IP 10 mg/kg, read-out: AUC0-t",3750 ng·h/mL
same,Tmax,"[2]; male, brain, ip, 10 mg/kg, brain, IP 10 mg/kg, read-out: Tmax (converted)",15 min
same,half-life,"[2]; male, brain, ip, 10 mg/kg, brain, IP 10 mg/kg, read-out: t1/2 (converted)",42.4 min
same,AUC(0-t),"[2]; male, brain, ip, 30 mg/kg, brain, IP 30 mg/kg, read-out: AUC0-24",25000 ng·h/mL
same,AUC(0-t),"[2]; male, brain, ip, 30 mg/kg, brain, IP 30 mg/kg, read-out: AUC0-t",25000 ng·h/mL
same,Tmax,"[2]; male, brain, ip, 30 mg/kg, brain, IP 30 mg/kg, read-out: Tmax (converted)",60 min
same,half-life,"[2]; male, brain, ip, 30 mg/kg, brain, IP 30 mg/kg, read-out: t1/2 (converted)",55.1 min
same,half-life,"[2]; male, brain, ip, brain, IP administration 3-30 mg/kg, read-out: t1/2 range",34.1 to 55.1 min
same,Tmax,"[2]; male, brain, ip, brain, after IP dosing (3-30 mg/kg), read-out: Tmax range",15 to 60 min
same,AUC(0-t),"[2]; male, brain, iv, 1 mg/kg, brain, IV 1 mg/kg, read-out: AUC0-24",690 ng·h/mL
same,AUC(0-t),"[2]; male, brain, iv, 1 mg/kg, brain, IV 1 mg/kg, read-out: AUC0-t",679 ng·h/mL
same,Tmax,"[2]; male, brain, iv, 1 mg/kg, brain, IV 1 mg/kg, read-out: Tmax (converted)",7.02 min
same,half-life,"[2]; male, brain, iv, 1 mg/kg, brain, IV 1 mg/kg, read-out: t1/2 (converted)",18.7 min
same,Kp,"[2]; male, read-out: Brain: plasma ratio for AUC0-24, range",1.41 to 2.01
same,Kp,"[2]; male, read-out: Brain: plasma ratio for Cmax, range",1.23 to 2.03
same,Cmax,"[2]; male, plasma, IP 3 mg/kg",658 ng/mL
same,Cmax,"[2]; male, plasma, IP 10 mg/kg",2550 ng/mL
same,Cmax,"[2]; male, plasma, IP 30 mg/kg",11000 ng/mL
same,Cmax,"[2]; male, plasma, IV 1 mg/kg",775 ng/mL
same,clearance,"[2]; male, plasma, IV 1 mg/kg",48.7 mL/min/kg
same,Vd,"[2]; male, plasma, IV 1 mg/kg, read-out: Vss",1.9 L/kg
same,AUC(0-t),"[2]; male, plasma, ip, 3 mg/kg, plasma, IP 3 mg/kg, read-out: AUC0-24",535 ng·h/mL
same,AUC(0-t),"[2]; male, plasma, ip, 3 mg/kg, plasma, IP 3 mg/kg, read-out: AUC0-t",533 ng·h/mL
same,Tmax,"[2]; male, plasma, ip, 3 mg/kg, plasma, IP 3 mg/kg, read-out: Tmax (converted)",15 min
same,half-life,"[2]; male, plasma, ip, 3 mg/kg, plasma, IP 3 mg/kg, read-out: t1/2 (converted)",59.6 min
same,AUC(0-t),"[2]; male, plasma, ip, 10 mg/kg, plasma, IP 10 mg/kg, read-out: AUC0-24",2600 ng·h/mL
same,AUC(0-t),"[2]; male, plasma, ip, 10 mg/kg, plasma, IP 10 mg/kg, read-out: AUC0-t",2590 ng·h/mL
same,Tmax,"[2]; male, plasma, ip, 10 mg/kg, plasma, IP 10 mg/kg, read-out: Tmax (converted)",15 min
same,half-life,"[2]; male, plasma, ip, 10 mg/kg, plasma, IP 10 mg/kg, read-out: t1/2 (converted)",64.8 min
same,AUC(0-t),"[2]; male, plasma, ip, 30 mg/kg, plasma, IP 30 mg/kg, read-out: AUC0-24",17700 ng·h/mL
same,AUC(0-t),"[2]; male, plasma, ip, 30 mg/kg, plasma, IP 30 mg/kg, read-out: AUC0-t",17700 ng·h/mL
same,Tmax,"[2]; male, plasma, ip, 30 mg/kg, plasma, IP 30 mg/kg, read-out: Tmax (converted)",15 min
same,half-life,"[2]; male, plasma, ip, 30 mg/kg, plasma, IP 30 mg/kg, read-out: t1/2 (converted)",57.5 min
same,Tmax,"[2]; male, plasma, ip, 30 mg/kg, plasma, IP 3, 10 or 30 mg/kg (each dose level), read-out: Tmax (converted)",15 min
same,half-life,"[2]; male, plasma, ip, 30 mg/kg, plasma, IP 3, 10 or 30 mg/kg, read-out: t1/2 range across dose levels",59.6 to 64.8 min
same,AUC(0-t),"[2]; male, plasma, iv, 1 mg/kg, plasma, IV 1 mg/kg, read-out: AUC0-24",343 ng·h/mL
same,AUC(0-t),"[2]; male, plasma, iv, 1 mg/kg, plasma, IV 1 mg/kg, read-out: AUC0-t",342 ng·h/mL
same,Tmax,"[2]; male, plasma, iv, 1 mg/kg, plasma, IV 1 mg/kg, read-out: Tmax (converted)",7.02 min
same,half-life,"[2]; male, plasma, iv, 1 mg/kg, plasma, IV 1 mg/kg, read-out: t1/2 (converted)",27.1 min
same,Fabs,"[2]; plasma, IP 3 mg/kg",52.1%
same,Fabs,"[2]; plasma, IP 10 mg/kg",75.8%
same,Fabs,"[2]; plasma, IP 30 mg/kg",173%
same,increase in plasma AUC0-24 for a 10-fold increase in dose level,"[2]; plasma, IP 3 to 30 mg/kg",33.2 fold
same,increase in plasma Cmax for a 10-fold increase in dose level,"[2]; plasma, IP 3 to 30 mg/kg",16.7 fold
